Test results from PubChem BioAssay (NCI).
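All cell lines were grown in 96-well plates and treated with compound for 48 hours. TGI denotes the concentration required for complete inhibition of growth.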

Columns and labels:
Test in all cases: NCI tumour cell line growth inhibition, 48 h
[1] = system: M14 melanoma
[2] = system: HS 578T breast
[3] = system: MOLT-4 leukemia
[4] = system: COLO 205 colon
[5] = system: IGROV1 ovarian
[6] = system: CCRF-CEM leukemia
[7] = system: HCT-15 colon
[8] = system: SK-MEL-5 melanoma
[9] = system: SF-268 CNS
[10] = system: HCC-2998 colon
[11] = system: 786-0 renal
[12] = system: NCI-H460 lung
[13] = system: NCI/ADR-RES ovarian
[14] = system: SN12C renal
[15] = system: PC-3 prostate
[16] = system: UACC-257 melanoma
[17] = system: K-562 leukemia
[18] = system: HOP-62 NSCLC
[19] = system: A498 renal
[20] = system: MDA-N
[21] = system: T-47D breast
[22] = system: OVCAR-8 ovarian
[23] = system: SK-MEL-28 melanoma
[24] = system: SF-295 CNS
[25] = system: SF-539 CNS
[26] = system: CAKI-1 renal
[27] = system: SK-MEL-2 melanoma
[28] = system: LOX IMVI melanoma
[29] = system: TK-10 renal
[30] = system: UO-31 renal
[31] = system: MDA-MB-231 breast
[32] = system: SR leukemia
[33] = system: MDA-MB-435
[34] = system: HOP-92 NSCLC
[35] = system: OVCAR-3 ovarian
[36] = system: SK-OV-3 ovarian
[37] = system: SW-620 colon
[38] = system: ACHN renal
[39] = system: DU-145 prostate
[40] = system: NCI-H522 lung
[41] = system: RXF 393 renal
[42] = system: EKVX NSCLC
[43] = system: MCF7 breast
[44] = system: NCI-H23 lung
[45] = system: HCT-116 colon
[46] = system: HL-60(TB) leukemia
[47] = system: A549 NSCLC
[48] = system: RPMI-8226 leukemia
[49] = system: NCI-H226 lung
[50] = system: SNB-19 CNS
[51] = system: UACC-62 melanoma
[52] = system: OVCAR-5 ovarian
[53] = system: BT-549 breast
[54] = system: U251 CNS

Measured: TGI

CC1(C)OC2C(CO)OC(n3cnc(N)nc3=O)C2O1 (centres undefined)
> 100 µM: all assays above
